In PubChem BioAssay (NCI):
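Briefly, cells in 96-well plates were exposed to five compound concentrations for 48 h, and endpoints were estimated by linear interpolation. The concentration for full growth arrest is given as TGI.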

Columns and labels:
Test in all cases: NCI anticancer screen, dose series, 48 h
SF-539 CNS = test system: SF-539 CNS
MDA-MB-231 breast = test system: MDA-MB-231 breast
786-0 renal = test system: 786-0 renal
RXF 393 renal = test system: RXF 393 renal
SW-620 colon = test system: SW-620 colon
SK-OV-3 ovarian = test system: SK-OV-3 ovarian
BT-549 breast = test system: BT-549 breast
OVCAR-4 ovarian = test system: OVCAR-4 ovarian
SF-295 CNS = test system: SF-295 CNS
SR leukemia = test system: SR leukemia
SF-268 CNS = test system: SF-268 CNS
HCT-15 colon = test system: HCT-15 colon
EKVX NSCLC = test system: EKVX NSCLC
SK-MEL-2 melanoma = test system: SK-MEL-2 melanoma
MALME-3M melanoma = test system: MALME-3M melanoma
MCF7 breast = test system: MCF7 breast

O=C1c2cccc3cccc(c23)C(=O)N1CCCNCCCCNCCCN1C(=O)c2cccc3cccc(c23)C1=O was tested, and the TGI (SF-539 CNS) was 1.57 µM, the TGI (MDA-MB-231 breast) was 1.09 µM and the TGI (786-0 renal) was 0.734 µM. For the same molecule, the TGI (RXF 393 renal) was 0.698 µM, the TGI (SW-620 colon) was 3.54 µM and the TGI (SK-OV-3 ovarian) was 6.65 µM. It also gave a TGI (BT-549 breast) of 3.02 µM, a TGI (OVCAR-4 ovarian) of 1.93 µM and a TGI (SF-295 CNS) of 3.4 µM. The TGI (SR leukemia) was 0.219 µM, the TGI (SF-268 CNS) was 0.605 µM and the TGI (HCT-15 colon) was 13.8 µM. The TGI (EKVX NSCLC) was 3.28 µM, the TGI (SK-MEL-2 melanoma) was 1.89 µM and the TGI (MALME-3M melanoma) was 0.74 µM.
For C=C[C@@H](OCOCC[Si](C)(C)C)[C@@H](CC)OC(CCCOC(=O)C(C)(C)C)OC (some centres undefined), the TGI (MDA-MB-231 breast) was greater than 100 µM, the TGI (786-0 renal) was 88.5 µM and the TGI (SW-620 colon) was 70.1 µM. For the same molecule, the TGI (SK-OV-3 ovarian) was greater than 100 µM, the TGI (MCF7 breast) was 44.9 µM and the TGI (OVCAR-4 ovarian) was greater than 100 µM. It also gave a TGI (SF-295 CNS) of 50.7 µM, a TGI (SR leukemia) greater than 100 µM and a TGI (SF-268 CNS) greater than 100 µM. It also gave a TGI (HCT-15 colon) of 50.9 µM, a TGI (EKVX NSCLC) of 65.4 µM and a TGI (SK-MEL-2 melanoma) of 52.9 µM.
N=C(N)C1CN(CCc2cnc[nH]2)C(=O)NC1=O (centres undefined) was tested, and the TGI (SF-539 CNS) was greater than 100 µM, the TGI (786-0 renal) was greater than 100 µM and the TGI (RXF 393 renal) was greater than 100 µM. It also gave a TGI (SW-620 colon) greater than 100 µM, a TGI (SK-OV-3 ovarian) greater than 100 µM and a TGI (MCF7 breast) greater than 100 µM. For the same molecule, the TGI (BT-549 breast) was greater than 100 µM, the TGI (OVCAR-4 ovarian) was greater than 100 µM and the TGI (SF-295 CNS) was greater than 100 µM. The TGI (SR leukemia) was greater than 100 µM, the TGI (SF-268 CNS) was greater than 100 µM and the TGI (HCT-15 colon) was greater than 100 µM. The TGI (EKVX NSCLC) was greater than 100 µM and the TGI (MALME-3M melanoma) was greater than 100 µM.
For CC1(C)OCC2(CO1)CSCCCSCC1(COC(C)(C)OC1)CSCCCSC2, the TGI (SF-539 CNS) was greater than 100 µM, the TGI (MDA-MB-231 breast) was greater than 100 µM and the TGI (786-0 renal) was greater than 100 µM. The TGI (SW-620 colon) was greater than 100 µM, the TGI (SK-OV-3 ovarian) was greater than 100 µM and the TGI (BT-549 breast) was greater than 100 µM. For the same molecule, the TGI (OVCAR-4 ovarian) was greater than 100 µM, the TGI (SF-295 CNS) was greater than 100 µM and the TGI (SR leukemia) was greater than 100 µM. The TGI (SF-268 CNS) was greater than 100 µM, the TGI (HCT-15 colon) was greater than 100 µM and the TGI (EKVX NSCLC) was greater than 100 µM.
Molecule O=c1[nH]c(=O)n(C2CC(O)C(CO)O2)cc1NN=NCCc1ccccc1 (centres undefined) has a TGI (MDA-MB-231 breast) greater than 100 µM, a TGI (786-0 renal) greater than 100 µM and a TGI (RXF 393 renal) greater than 100 µM. For the same molecule, the TGI (SK-OV-3 ovarian) was greater than 100 µM, the TGI (MCF7 breast) was greater than 100 µM and the TGI (OVCAR-4 ovarian) was greater than 100 µM. The TGI (SF-295 CNS) was greater than 100 µM, the TGI (SR leukemia) was greater than 100 µM and the TGI (SF-268 CNS) was greater than 100 µM. It also gave a TGI (HCT-15 colon) greater than 100 µM, a TGI (EKVX NSCLC) greater than 100 µM and a TGI (MALME-3M melanoma) greater than 100 µM.
CCCCCCCC(=O)OC[C@@H](C[As](=O)(O)O)OC(=O)CCCCCCC gave a TGI (SF-539 CNS) of 22.3 µM, a TGI (786-0 renal) of 24.7 µM and a TGI (RXF 393 renal) of 19.3 µM. It also gave a TGI (SW-620 colon) of 25.9 µM, a TGI (SK-OV-3 ovarian) of 28.1 µM and a TGI (OVCAR-4 ovarian) of 28.9 µM. For the same molecule, the TGI (SF-295 CNS) was 28.9 µM, the TGI (SR leukemia) was 40.5 µM and the TGI (SF-268 CNS) was 20.3 µM. For the same molecule, the TGI (HCT-15 colon) was 22.4 µM, the TGI (EKVX NSCLC) was 84.4 µM and the TGI (MALME-3M melanoma) was 28.5 µM.
Molecule CC1=NN(c2nc(N)nc(/C(C#N)=C/c3ccc([N+](=O)[O-])o3)n2)C(C)(C)C1 has a TGI (SF-539 CNS) of 12 µM, a TGI (MDA-MB-231 breast) of 3.29 µM and a TGI (786-0 renal) of 2.99 µM. The TGI (RXF 393 renal) was 3.21 µM, the TGI (SW-620 colon) was 3.71 µM and the TGI (SK-OV-3 ovarian) was greater than 52.3 µM. The TGI (MCF7 breast) was 3.21 µM, the TGI (BT-549 breast) was 9.24 µM and the TGI (OVCAR-4 ovarian) was 25.7 µM. For the same molecule, the TGI (SF-295 CNS) was 33.8 µM, the TGI (SF-268 CNS) was 16.2 µM and the TGI (EKVX NSCLC) was 9.04 µM. The TGI (SK-MEL-2 melanoma) was 16.7 µM and the TGI (MALME-3M melanoma) was 4.23 µM.
COC1(C(C)(C)C)C=C(C(C)(C)C)P(=O)(O)O1 (centres undefined) showed a TGI (SF-539 CNS) greater than 100 µM, a TGI (786-0 renal) greater than 100 µM and a TGI (SW-620 colon) greater than 100 µM. The TGI (SK-OV-3 ovarian) was greater than 100 µM, the TGI (MCF7 breast) was greater than 100 µM and the TGI (OVCAR-4 ovarian) was greater than 100 µM. The TGI (SF-295 CNS) was greater than 100 µM, the TGI (SR leukemia) was greater than 100 µM and the TGI (SF-268 CNS) was greater than 100 µM. The TGI (HCT-15 colon) was greater than 100 µM, the TGI (EKVX NSCLC) was greater than 100 µM and the TGI (SK-MEL-2 melanoma) was greater than 100 µM. The TGI (MALME-3M melanoma) was greater than 100 µM.
